Assay results: US11241434B2, “Compositions and methods for improving cognition in a subject” (Yale University, priority 2013, dated 2022)

What was measured:
[1] = dog, 6 month study, cited from earlier work
[2] = test system: APPswe/PS1ΔE9 transgenic mice; test: Histology of AD transgenic mice (Aβ plaque, PSD-95, SV2A); format: in vivo, mouse; details: for synapse density (PSD-95, SV2A) in dentate gyrus: 5 weeks
Excerpt: FIGS. 10A-10C illustrate the finding that synaptic markers recover after treatment with a Fyn inhibitor. […] FIG. 10A: Representative sections from the labeled groups were stained with anti-PSD-95 antibody and the molecular layer of the dentate gyrus was imaged with a confocal microscope with a 60× objective lens. Scale bar, 3 μm. FIG. 10B: Fractional area of immunoreactive puncta for PSD-95. p<0.05, ANOVA with post-hoc pairwise Tukey comparisons. Mean±SEM, n=5-10 mice per group, two images per mouse. FIG. 10C: Fractional area of immunoreactive puncta for SV2. p<0.05, ANOVA with post-hoc pairwise Fisher's least significant difference (LSD). Mean±SEM, n=5-10 mice per group, two images per mouse.
The animals were familiarized with two objects on the first day of testing, and then observed on the next day with one novel object and one familiar object. The time spent exploring each object was scored by an observed unaware of drug treatment (FIG. 5). WT mice spend more time with the novel object. However, vehicle-treated APPswe/PS1ΔE9 mice spent equal time with both objects, consistent with impaired memory of familiarization on the previous day. […] The tissue from these mice is analyzed histologically, e.g., for Aβ plaque and synaptic markers (which are reduced in the transgenic mice). […] Without wishing to be limited by theory, this finding is consistent with the fact that saracatinib blocks the downstream action of Aβo on neurons, but not the upstream production of Aβ.
Upon analysis of a post-synaptic marker (PSD-95) or a presynaptic marker (SV2A) in the dentate gyrus of the hippocampus, an saracatinib-induced restoration of synapse density was observed. The twelve-month old transgenic mice have lost approximately 30-40% of synapses by the immunohistological measures.

solid tumors = details: single agent, specific oncological indications; cited from earlier work
[3] = test system: APPswe/PS1ΔE9 transgenic mice; test: Morris water maze in AD transgenic mice
Experimental: Spatial learning is plotted as latency to find a hidden platform in a Morris water maze at age 11-12 months. […] Mean±SEM for the indicated numbers of mice per genotype/treatment group.
Memory performance during a 60 sec probe trial, 24 hr after learning, where time spent in the target quadrant was measured. Random chance is 15 sec. Mean±SEM for n=9-14 in each group.
The dosing was on a twice a day schedule by oral gavage and control groups received vehicle. The identity of the active versus vehicle groups and the transgene status was unknown to the researchers handling the mice and collecting the behavioral data. […] The data from the two cohorts were pooled. Different tests were performed at 1-3 weeks (early) or 4-6 weeks (late) time points. Mice were tested in the Morris water maze at both ages, and also in Novel Object Recognition tests at the later time points. After memory testing was complete, the animals were sacrificed without ceasing their drug regimen for histological analysis.
After the learning trials, the mice were tested the subsequent day in a memory test, the 60 second probe trial with the hidden platform removed (FIG. 4). Random chance results in 15 sec occupancy in each quadrant.

[4] = Saracatinib drug levels in mouse brain, plasma and CSF (LC/MS/MS); format: in vivo; details: 5 mg/kg/d; for peak CSF level / trough CSF level: one pooled sample
Experimental: Data are mean±sem for separate mice for all points except CSF where samples pooled.
In an initial cohort after 6 doses, samples were collected 30-60 minutes after dosing to obtain a peak level (FIG. 6). Drug levels were measured with an LC/MS/MS method validated for clinical samples.

SMILES: CN1CCN(CCOc2cc(OC3CCOCC3)c3c(Nc4c(Cl)ccc5c4OCO5)ncnc3c2)CC1 [saracatinib, N-(5-chloro-benzo[d][1,3]dioxol-4-yl)-7-(2-(4-methylpiperazin-1-yl)ethoxy)-5-(tetrahydro-2H-pyran-4-yloxy)quinazolin-4-amine]
- toxicity ([1]; 5 mg/kg/d): mild GI toxicity
- NOAEL [1]: 0.5 mg/kg/day
- Aβ plaque content ([2]; APPswe/PS1ΔE9 mice): No significant changes
- synapse density (PSD-95, SV2A) in dentate gyrus ([2]; APPswe/PS1ΔE9 mice): restored to WT control levels
- synapse density (PSD-95, SV2A) in dentate gyrus ([2]; WT mice): no change
- benefit in Phase II studies (solid tumors): limited benefit
- latency to hidden platform (learning trials) ([3]; APPswe/PS1ΔE9 mice, 5 mg/kg/d b.i.d. oral gavage, 4-5 weeks): eliminated the transgenic deficit
- probe trial, preference for target quadrant ([3]; APPswe/PS1ΔE9 mice, 5 mg/kg/d, 5 weeks): same strong preference for the target quadrant as did WT mice
- learning and memory tests ([3]; shorter treatment duration or lesser doses): did not have significant effects
- probe trial, time in target quadrant ([3]; wild type mice with or without 5 weeks saracatinib, 60 second trial, chance 15 sec): ~30 s
- latency to hidden platform (learning trials) ([3]; wild type mice, 5 mg/kg/d): not altered
- peak brain level [4]: 50 nM
- trough brain level ([4]; 5 mg/kg/day): 19 to 46 nM
- peak brain level ([4]; as free base): 27 ng/g
- peak CSF level [4]: 13 nM
- trough CSF level [4]: 8.9 nM
- peak CSF level ([4]; as free base): 7 ng/mL
- trough CSF level ([4]; as free base): 4.6 ng/mL
